Calls of active or inactive are those of the source.
Tests used:
Type in all cases: functional, organism-based
Penicillium oxalicum = experiment: Antimicrobial activity against Penicillium oxalicum CBS 219.30 at 25 ug
Bacillus subtilis = experiment: Antimicrobial activity against Bacillus subtilis ATCC 6633 at 25 ug
Micrococcus luteus = experiment: Antimicrobial activity against Micrococcus luteus ATCC 9341 at 25 ug
Escherichia coli = experiment: Antimicrobial activity against Escherichia coli ATCC 25922 at 25 ug

Measured: Activity

COc1cc2c(c3c1-c1ccc4cc5c(cc4c1N(C)C3)OCO5)OCO2
inactive: all assays above

COc1ccc2c(c1OC)CN(C)c1c-2cc(OC)c2cc3c(cc12)OCO3
inactive: all assays above

COc1ccc2c(c1OC)CN(C)c1c-2ccc2cc3c(cc12)OCO3
inactive: all assays above

CN1Cc2c(ccc3c2OCO3)-c2ccc3cc4c(cc3c21)OCO4
inactive: all assays above

— ChEMBL document CHEMBL1158952, “An Nmr Study of Four Benzophenanthridine Alkaloids” (J Nat Prod, 1991)
